How the values were obtained:
Assay in all cases: KinomeScan
Type in all cases: binding
Conditions in all cases: read-out: % Ctrl @ 10000 nM
DAPK2 = molecular target: T1, DAPK2 (Homo sapiens, UniProt Q9UIK4)
T1 construct: purchased Ambit Biosciences Corp (KinomeScan); host or cells: T7 phage in E. coli host derived from BL21
Outline: (§1)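 An active-site competition format was used, with T7 phage displaying the kinase and affinity beads carrying immobilized ligand. Blocking buffer contained SeaBlock, 1% BSA, 0.05% Tween 20 and 1 mM DTT.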

[1] = molecular target: T2, RPS6KA3(Kin.Dom.-1-N-terminal) (Homo sapiens, UniProt P51812)
T2 construct: RPS6KA3(Kin.Dom.-1-N-terminal); host or cells: E. coli host derived from BL21, T7 phage display
Outline: as §1

ADCK4 = molecular target: T3, ADCK4 (Homo sapiens, UniProt Q96D53)
T3 construct: host or cells: E. coli (BL21-derived), T7 phage lysate
Outline: as §1

BMPR1A = molecular target: T4, BMPR1A (Homo sapiens, UniProt P36894)
T4 construct: host or cells: E. coli host derived from BL21
T4 sequence (P36894 24-532): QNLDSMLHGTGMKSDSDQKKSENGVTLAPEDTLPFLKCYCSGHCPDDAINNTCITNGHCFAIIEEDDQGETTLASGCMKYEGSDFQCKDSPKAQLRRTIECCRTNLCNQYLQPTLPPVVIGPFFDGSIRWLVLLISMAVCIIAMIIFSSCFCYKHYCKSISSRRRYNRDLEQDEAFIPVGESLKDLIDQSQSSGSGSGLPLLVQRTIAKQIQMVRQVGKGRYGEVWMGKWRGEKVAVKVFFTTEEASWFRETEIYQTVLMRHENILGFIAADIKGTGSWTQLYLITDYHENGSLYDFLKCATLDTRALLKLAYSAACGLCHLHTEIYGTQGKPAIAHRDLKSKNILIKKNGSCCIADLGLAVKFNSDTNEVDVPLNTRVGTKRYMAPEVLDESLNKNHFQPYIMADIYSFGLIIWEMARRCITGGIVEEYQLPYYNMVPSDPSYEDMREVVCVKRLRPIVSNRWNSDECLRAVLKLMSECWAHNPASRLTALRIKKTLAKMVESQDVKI
Outline: as §1

PIM2 = molecular target: T5, PIM2 (Homo sapiens, UniProt Q9P1W9)
T5 construct: host or cells: T7 phage in E. coli host derived from BL21
Outline: as §1

SIK = molecular target: T6, SIK (Homo sapiens, UniProt P57059)
T6 construct: host or cells: T7 phage grown in E. coli (BL21-derived)
T6 sequence (P57059 whole entry): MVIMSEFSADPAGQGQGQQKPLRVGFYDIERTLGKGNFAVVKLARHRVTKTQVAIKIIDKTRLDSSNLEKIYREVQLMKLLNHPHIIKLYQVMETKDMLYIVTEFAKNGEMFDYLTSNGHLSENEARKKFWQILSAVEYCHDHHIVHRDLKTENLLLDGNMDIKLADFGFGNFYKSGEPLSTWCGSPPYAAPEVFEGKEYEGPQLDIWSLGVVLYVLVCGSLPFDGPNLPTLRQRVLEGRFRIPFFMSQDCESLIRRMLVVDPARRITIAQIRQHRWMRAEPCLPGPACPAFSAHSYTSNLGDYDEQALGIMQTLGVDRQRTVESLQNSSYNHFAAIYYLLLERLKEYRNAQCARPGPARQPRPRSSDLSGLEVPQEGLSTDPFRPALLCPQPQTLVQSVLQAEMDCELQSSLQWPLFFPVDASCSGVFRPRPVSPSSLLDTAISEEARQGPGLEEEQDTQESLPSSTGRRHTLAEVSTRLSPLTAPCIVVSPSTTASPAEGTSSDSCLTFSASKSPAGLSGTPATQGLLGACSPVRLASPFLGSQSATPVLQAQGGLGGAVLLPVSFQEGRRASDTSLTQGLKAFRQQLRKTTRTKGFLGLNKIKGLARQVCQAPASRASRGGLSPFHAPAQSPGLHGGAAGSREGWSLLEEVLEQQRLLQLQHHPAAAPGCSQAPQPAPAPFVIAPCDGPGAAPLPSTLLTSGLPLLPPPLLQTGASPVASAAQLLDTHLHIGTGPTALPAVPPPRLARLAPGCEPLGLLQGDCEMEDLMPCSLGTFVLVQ
Outline: as §1

CAMK1D = molecular target: T7, CAMK1D (Homo sapiens, UniProt Q8IU85)
T7 construct: host or cells: E. coli host derived from BL21
Outline: as §1

PHKG1 = molecular target: T8, PHKG1 (Homo sapiens, UniProt Q16816)
T8 construct: host or cells: E. coli host derived from BL21, infected with T7 phage
Outline: as §1

DMPK = molecular target: T9, DMPK (Homo sapiens, UniProt Q09013)
T9 construct: purchased Ambit Biosciences Corp (KinomeScan); host or cells: T7 phage in E. coli host derived from BL21
Outline: as §1

NEK2 = molecular target: T10, NEK2 (Homo sapiens, UniProt P51955)
T10 construct: host or cells: T7 phage grown in E. coli host derived from BL21
Outline: as §1

PIK3CG = molecular target: T11, PIK3CG (Homo sapiens, UniProt P48736)
T11 construct: host or cells: T7 phage in E. coli host derived from BL21
Outline: as §1

TAOK1 = molecular target: T12, TAOK1 (Homo sapiens, UniProt Q7L7X3)
T12 construct: host or cells: T7 phage grown in E. coli (BL21-derived)
Outline: as §1

ERK3 = molecular target: T13, ERK3 (Homo sapiens, UniProt Q16659)
T13 construct: purchased Ambit Biosciences Corp; host or cells: T7 phage in E. coli host derived from BL21
T13 sequence (Q16659 whole entry): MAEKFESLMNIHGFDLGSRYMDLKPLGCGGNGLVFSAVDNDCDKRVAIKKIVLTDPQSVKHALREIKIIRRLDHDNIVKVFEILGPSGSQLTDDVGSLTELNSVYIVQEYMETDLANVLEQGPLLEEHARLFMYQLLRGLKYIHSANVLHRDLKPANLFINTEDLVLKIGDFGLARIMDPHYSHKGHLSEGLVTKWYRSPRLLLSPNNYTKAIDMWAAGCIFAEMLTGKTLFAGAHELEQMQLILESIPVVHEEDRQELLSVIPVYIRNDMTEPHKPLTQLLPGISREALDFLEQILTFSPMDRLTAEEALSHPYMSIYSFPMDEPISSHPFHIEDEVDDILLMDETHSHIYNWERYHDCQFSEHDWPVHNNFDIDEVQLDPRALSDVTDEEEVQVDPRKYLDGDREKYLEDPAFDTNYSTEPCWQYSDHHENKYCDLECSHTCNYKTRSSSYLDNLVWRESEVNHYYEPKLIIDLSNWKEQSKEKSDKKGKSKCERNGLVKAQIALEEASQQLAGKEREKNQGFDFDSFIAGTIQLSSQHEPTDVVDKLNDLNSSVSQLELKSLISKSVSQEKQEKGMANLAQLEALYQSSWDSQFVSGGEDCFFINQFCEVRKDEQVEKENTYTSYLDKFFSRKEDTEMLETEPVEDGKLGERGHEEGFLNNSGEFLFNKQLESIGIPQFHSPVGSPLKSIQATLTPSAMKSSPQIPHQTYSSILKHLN
Outline: as §1

ACVR2A = molecular target: T14, ACVR2A (Homo sapiens, UniProt P27037)
T14 construct: host or cells: E. coli (BL21-derived), T7 phage lysate
Outline: as §1

TLK1 = molecular target: T15, TLK1 (Homo sapiens, UniProt Q9UKI8)
T15 construct: host or cells: E. coli host derived from BL21, T7 phage
Outline: as §1

HIPK1 = molecular target: T16, HIPK1 (Homo sapiens, UniProt Q86Z02)
T16 construct: host or cells: T7 phage in E. coli host derived from BL21
T16 sequence (Q86Z02 whole entry): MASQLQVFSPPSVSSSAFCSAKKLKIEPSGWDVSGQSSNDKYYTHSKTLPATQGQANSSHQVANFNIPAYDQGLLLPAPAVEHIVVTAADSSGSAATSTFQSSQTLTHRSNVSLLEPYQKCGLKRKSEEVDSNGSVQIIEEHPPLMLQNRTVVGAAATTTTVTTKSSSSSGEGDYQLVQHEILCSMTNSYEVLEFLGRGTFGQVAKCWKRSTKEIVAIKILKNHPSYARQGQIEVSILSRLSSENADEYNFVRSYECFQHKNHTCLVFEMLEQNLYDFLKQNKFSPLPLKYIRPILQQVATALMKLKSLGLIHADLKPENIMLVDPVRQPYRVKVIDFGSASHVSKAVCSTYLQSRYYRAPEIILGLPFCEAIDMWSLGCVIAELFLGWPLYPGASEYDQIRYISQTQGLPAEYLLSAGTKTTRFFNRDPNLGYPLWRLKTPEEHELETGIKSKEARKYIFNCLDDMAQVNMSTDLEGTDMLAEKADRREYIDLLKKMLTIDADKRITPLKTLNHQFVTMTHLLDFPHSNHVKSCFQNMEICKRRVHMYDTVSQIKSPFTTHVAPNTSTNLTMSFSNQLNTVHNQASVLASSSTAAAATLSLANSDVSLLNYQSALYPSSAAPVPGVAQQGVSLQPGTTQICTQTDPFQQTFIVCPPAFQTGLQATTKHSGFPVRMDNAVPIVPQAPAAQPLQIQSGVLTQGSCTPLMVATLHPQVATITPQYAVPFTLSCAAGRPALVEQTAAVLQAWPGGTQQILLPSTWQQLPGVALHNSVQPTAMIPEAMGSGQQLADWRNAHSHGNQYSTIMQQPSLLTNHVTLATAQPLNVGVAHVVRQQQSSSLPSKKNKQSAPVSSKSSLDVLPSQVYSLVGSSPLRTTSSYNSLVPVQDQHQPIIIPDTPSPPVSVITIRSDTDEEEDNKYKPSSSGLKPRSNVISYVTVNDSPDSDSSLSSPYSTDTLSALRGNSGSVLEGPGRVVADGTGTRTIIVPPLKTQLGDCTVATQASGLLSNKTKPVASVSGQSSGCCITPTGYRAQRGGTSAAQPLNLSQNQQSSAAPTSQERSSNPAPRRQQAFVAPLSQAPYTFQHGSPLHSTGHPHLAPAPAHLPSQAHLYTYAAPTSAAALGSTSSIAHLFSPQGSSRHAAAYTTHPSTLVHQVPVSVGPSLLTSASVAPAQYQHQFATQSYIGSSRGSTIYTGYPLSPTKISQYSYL
Outline: as §1

LATS1 = molecular target: T17, LATS1 (Homo sapiens, UniProt O95835)
T17 construct: host or cells: T7 phage grown in E. coli host derived from BL21
Outline: as §1

MYLK = molecular target: T18, MYLK (Homo sapiens, UniProt Q15746)
T18 construct: host or cells: T7 phage grown in E. coli host derived from BL21
Outline: as §1

PFTAIRE2 = molecular target: T19, PFTAIRE2 (Homo sapiens, UniProt Q96Q40)
T19 construct: host or cells: E. coli host derived from BL21, infected with T7 phage
Outline: as §1

DMPK2 = molecular target: T20, DMPK2 (Homo sapiens, UniProt Q6DT37)
T20 construct: purchased Ambit Biosciences Corp (KinomeScan); host or cells: T7 phage in E. coli host derived from BL21
T20 sequence (Q6DT37 whole entry): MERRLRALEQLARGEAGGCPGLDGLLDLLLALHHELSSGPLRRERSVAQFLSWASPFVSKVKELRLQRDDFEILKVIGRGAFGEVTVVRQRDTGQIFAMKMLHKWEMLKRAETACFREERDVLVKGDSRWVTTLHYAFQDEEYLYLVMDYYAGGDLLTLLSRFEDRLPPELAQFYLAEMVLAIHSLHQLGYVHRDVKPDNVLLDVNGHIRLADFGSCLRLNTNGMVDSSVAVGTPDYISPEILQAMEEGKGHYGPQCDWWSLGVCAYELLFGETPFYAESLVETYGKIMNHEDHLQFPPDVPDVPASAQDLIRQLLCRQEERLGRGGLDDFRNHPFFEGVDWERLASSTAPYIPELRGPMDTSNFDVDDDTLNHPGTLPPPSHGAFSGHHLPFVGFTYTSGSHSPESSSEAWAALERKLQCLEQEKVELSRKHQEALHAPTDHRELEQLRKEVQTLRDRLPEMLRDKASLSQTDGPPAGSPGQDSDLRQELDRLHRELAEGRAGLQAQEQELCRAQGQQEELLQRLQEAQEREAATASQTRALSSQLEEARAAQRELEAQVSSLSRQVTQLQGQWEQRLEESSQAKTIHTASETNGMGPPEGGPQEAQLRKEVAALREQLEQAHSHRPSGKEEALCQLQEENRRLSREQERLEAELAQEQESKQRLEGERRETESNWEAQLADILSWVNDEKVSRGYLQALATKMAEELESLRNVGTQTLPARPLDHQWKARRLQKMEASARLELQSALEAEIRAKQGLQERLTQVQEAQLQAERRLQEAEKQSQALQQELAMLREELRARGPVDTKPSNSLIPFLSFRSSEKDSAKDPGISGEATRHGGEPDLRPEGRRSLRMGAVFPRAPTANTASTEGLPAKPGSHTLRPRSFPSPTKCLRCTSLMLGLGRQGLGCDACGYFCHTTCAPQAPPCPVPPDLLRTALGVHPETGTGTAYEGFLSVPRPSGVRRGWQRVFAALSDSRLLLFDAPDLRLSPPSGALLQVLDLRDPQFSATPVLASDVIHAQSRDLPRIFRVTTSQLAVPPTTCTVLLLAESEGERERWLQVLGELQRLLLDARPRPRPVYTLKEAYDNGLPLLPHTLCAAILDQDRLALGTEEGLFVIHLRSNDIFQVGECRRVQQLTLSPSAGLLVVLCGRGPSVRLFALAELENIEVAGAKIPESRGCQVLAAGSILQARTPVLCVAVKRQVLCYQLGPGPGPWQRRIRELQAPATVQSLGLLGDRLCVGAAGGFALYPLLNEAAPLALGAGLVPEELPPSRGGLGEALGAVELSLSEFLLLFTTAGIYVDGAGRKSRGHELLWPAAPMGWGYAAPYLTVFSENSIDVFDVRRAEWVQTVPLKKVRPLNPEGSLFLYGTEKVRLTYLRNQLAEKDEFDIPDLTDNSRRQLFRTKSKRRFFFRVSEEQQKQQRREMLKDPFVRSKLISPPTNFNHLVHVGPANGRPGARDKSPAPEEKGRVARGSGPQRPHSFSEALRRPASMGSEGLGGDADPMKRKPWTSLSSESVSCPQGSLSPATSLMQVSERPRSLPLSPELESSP
Outline: as §1

TTK = molecular target: T21, TTK (Homo sapiens, UniProt P33981)
T21 construct: host or cells: E. coli host derived from BL21, T7 phage
Outline: as §1

YES = molecular target: T22, YES (Homo sapiens, UniProt P07947)
T22 construct: host or cells: E. coli host derived from BL21, T7 phage
Outline: as §1

ULK2 = molecular target: T23, ULK2 (Homo sapiens, UniProt Q8IYT8)
T23 construct: host or cells: E. coli host derived from BL21, T7 phage
Outline: as §1

EPHA4 = molecular target: T24, EPHA4 (Homo sapiens, UniProt P54764)
T24 construct: purchased Ambit Biosciences Corp; host or cells: T7 phage in E. coli host derived from BL21
Outline: as §1

MAP4K3 = molecular target: T25, MAP4K3 (Homo sapiens, UniProt Q8IVH8)
T25 construct: host or cells: E. coli host derived from the BL21 strain, infected with T7 phage
Outline: as §1

TGFBR1 = molecular target: T26, TGFBR1 (Homo sapiens, UniProt P36897)
T26 construct: host or cells: T7 phage grown in E. coli (BL21-derived)
Outline: as §1

FGFR3 = molecular target: T27, FGFR3 (Homo sapiens, UniProt P22607)
T27 construct: host or cells: T7 phage in E. coli host derived from BL21
Outline: as §1

BRAF = molecular target: T28, BRAF (Homo sapiens, UniProt P15056)
T28 construct: host or cells: E. coli host derived from BL21
Outline: as §1

AURKA = molecular target: T29, AURKA (Homo sapiens, UniProt O14965)
T29 construct: host or cells: E. coli host derived from BL21
Outline: as §1

[2] = molecular target: T30, RPS6KA5(Kin.Dom.-2-C-terminal) (Homo sapiens, UniProt O75582)
T30 construct: RPS6KA5(Kin.Dom.-2-C-terminal); host or cells: E. coli host derived from BL21, T7 phage display
Outline: as §1

[3] = molecular target: T31, RPS6KA6(Kin.Dom.-2-C-terminal) (Homo sapiens, UniProt Q9UK32)
T31 construct: RPS6KA6(Kin.Dom.-2-C-terminal); host or cells: T7 phage grown in E. coli (BL21-derived)
T31 sequence (Q9UK32 426-683 limits assumed): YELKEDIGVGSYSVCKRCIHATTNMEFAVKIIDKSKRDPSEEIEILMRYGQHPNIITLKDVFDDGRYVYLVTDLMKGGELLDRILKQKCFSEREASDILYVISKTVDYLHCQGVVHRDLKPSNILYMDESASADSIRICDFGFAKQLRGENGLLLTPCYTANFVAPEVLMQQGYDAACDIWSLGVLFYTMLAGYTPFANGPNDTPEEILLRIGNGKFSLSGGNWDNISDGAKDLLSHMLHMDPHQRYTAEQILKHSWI
Outline: as §1

PRKCE = molecular target: T32, PRKCE (Homo sapiens, UniProt Q02156)
T32 construct: host or cells: T7 phage in E. coli host derived from BL21
Outline: as §1

SMILES: C#Cc1cccc(Nc2ncnc3cc(OC)c(OCCCN4CCOCC4)cc23)c1 [NRC-2694, N-(3-ethynylphenyl)-7-methoxy-6-[3-(4-morpholinyl)propoxy]-4-quinazolinamine]
- remaining binding at 10 µM (DAPK2): 61%
- remaining binding at 10 µM [1]: 94%
- remaining binding at 10 µM (ADCK4): 14%
- remaining binding at 10 µM (BMPR1A): 100%
- remaining binding at 10 µM (PIM2): 83%
- remaining binding at 10 µM (SIK): 53%
- remaining binding at 10 µM (CAMK1D): 83%
- remaining binding at 10 µM (PHKG1): 50%
- remaining binding at 10 µM (DMPK): 6.8%
- remaining binding at 10 µM (NEK2): 63%
- remaining binding at 10 µM (PIK3CG): 78%
- remaining binding at 10 µM (TAOK1): 54%
- remaining binding at 10 µM (ERK3): 10%
- remaining binding at 10 µM (ACVR2A): 92%
- remaining binding at 10 µM (TLK1): 77%
- remaining binding at 10 µM (HIPK1): 70%
- remaining binding at 10 µM (LATS1): 91%
- remaining binding at 10 µM (MYLK): 62%
- remaining binding at 10 µM (PFTAIRE2): 71%
- remaining binding at 10 µM (DMPK2): 61%
- remaining binding at 10 µM (TTK): 48%
- remaining binding at 10 µM (YES): 41%
- remaining binding at 10 µM (ULK2): 39%
- remaining binding at 10 µM (EPHA4): 64%
- remaining binding at 10 µM (MAP4K3): 52%
- remaining binding at 10 µM (TGFBR1): 83%
- remaining binding at 10 µM (FGFR3): 100%
- remaining binding at 10 µM (BRAF): 81%
- remaining binding at 10 µM (AURKA): 100%
- remaining binding at 10 µM [2]: 57%
- remaining binding at 10 µM [3]: 55%
- remaining binding at 10 µM (PRKCE): 65%

Source: US8921362B2, “6,7-dialkoxy quinazoline derivatives and methods of treating drug resistant and other tumors” (Natco Pharma Limited, priority 2008, dated 2014)
